Data from ChEMBL document CHEMBL3045536, “Prediction of antimalarial activity of some cyclic peroxy ketals using physico-chemical and topological indices” (2012).

Tested on: Plasmodium falciparum
Assay: Antimalarial activity against Plasmodium falciparum
Format: functional

COc1cc(C2(OC)C=CC(C3CCCCCC3)(C3CCCCCC3)OC2)cc(OC)c1OC (centres undefined)
logIC50: 2.079

COC1(c2ccc(C(F)(F)F)cc2)C=CC(C2CCCCC2)(C2CCCCC2)OC1 (centres undefined)
logIC50: 2.146

COC1(c2ccccc2)C=CC(C2CCCCCC2)(C2CCCCCC2)OC1 (centres undefined)
logIC50: 2.342

COC1(c2ccc(Cl)cc2)C=CC(C2CCCCC2)(C2CCCCC2)OC1 (centres undefined)
logIC50: 2

COC1(c2ccc(Cl)cc2)C=CC(C2CCCCCC2)(C2CCCCCC2)OC1 (centres undefined)
logIC50: 1.763

CCc1ccc(C2(OC)C=CC(C3CCCCCC3)(C3CCCCCC3)OC2)cc1 (centres undefined)
logIC50: 2.255

COc1ccc(C2(OC)C=CC(C3CCCCCC3)(C3CCCCCC3)OC2)cc1 (centres undefined)
logIC50: 2.322

COC1(c2ccccc2)C=CC(C2CCCCC2)(C2CCCCC2)OC1 (centres undefined)
logIC50: 2.447

COC1(c2ccc(SC)cc2)C=CC(C2CCCCCC2)(C2CCCCCC2)OC1 (centres undefined)
logIC50: 1.892

COC1(c2ccc(F)cc2)C=CC(C2CCCCCC2)(C2CCCCCC2)OC1 (centres undefined)
logIC50: 1.929

COc1ccc(C2(OC)C=CC(C3CCCCC3)(C3CCCCC3)OC2)cc1 (centres undefined)
logIC50: 2.255

COC1(c2ccc(OC(F)(F)F)cc2)C=CC(C2CCCCCC2)(C2CCCCCC2)OC1 (centres undefined)
logIC50: 1.785

COC1(c2ccc(S(C)(=O)=O)cc2)C=CC(C2CCCCCC2)(C2CCCCCC2)OC1 (centres undefined)
logIC50: 1.491

COC1(c2ccc(F)cc2)C=CC(C2CCCCC2)(C2CCCCC2)OC1 (centres undefined)
logIC50: 2.301

COC1(c2ccc([N+](=O)[O-])cc2)C=CC(C2CCCCC2)(C2CCCCC2)OC1 (centres undefined)
logIC50: 1.663

COC1(c2ccccc2)C=CC(C)(C)OC1 (centres undefined)
logIC50: 3.041

COC1(c2ccc(S(C)(=O)=O)cc2)C=CC(C2CCCCC2)(C2CCCCC2)OC1 (centres undefined)
logIC50: 1.748

COC1(c2ccc(SC)cc2)C=CC(C2CCCCC2)(C2CCCCC2)OC1 (centres undefined)
logIC50: 2.204

COC1(c2ccccc2)C=CC(C2CCCC2)(C2CCCC2)OC1 (centres undefined)
logIC50: 2.279
